Tested on: MCF7 multi-cell spheroids with HUVEC/MSC, viability
Assay: Anticancer human tumor MCF7 cell line growth inhibition [IpAb];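 note: spheroids exposed to agents for seven days before readout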
Conditions: for IC50: curve of first compound; for viability, T/C: stronger effect = lower value
Outline: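 Spheroids of 60% malignant cells, 25% HUVEC and 15% MSC were exposed to targeted agents combined with ipatasertib or abemaciclib. Doses started at or near clinical Cmax (10 microM when unknown) and fell in half-log steps.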

[1] = second compound 0.01 µM, first compound 0.0316 µM
[2] = second compound 0.01 µM, first compound 0.1 µM
[3] = second compound 0.01 µM, first compound 0.316 µM
[4] = second compound 0.01 µM, first compound 1 µM
[5] = second compound 0.01 µM, first compound 3.16 µM
[6] = second compound 0.01 µM, first compound 10 µM
[7] = second compound 0.0316 µM, first compound 0.0316 µM
[8] = second compound 0.0316 µM, first compound 0.1 µM
[9] = second compound 0.0316 µM, first compound 0.316 µM
[10] = second compound 0.0316 µM, first compound 1 µM
[11] = second compound 0.0316 µM, first compound 3.16 µM
[12] = second compound 0.0316 µM, first compound 10 µM
[13] = second compound 0.1 µM, first compound 0.0316 µM
[14] = second compound 0.1 µM, first compound 0.1 µM
[15] = second compound 0.1 µM, first compound 0.316 µM
[16] = second compound 0.1 µM, first compound 1 µM
[17] = second compound 0.1 µM, first compound 3.16 µM
[18] = second compound 0.1 µM, first compound 10 µM
[19] = second compound 0.316 µM, first compound 0.0316 µM
[20] = second compound 0.316 µM, first compound 0.1 µM
[21] = second compound 0.316 µM, first compound 0.316 µM
[22] = second compound 0.316 µM, first compound 1 µM
[23] = second compound 0.316 µM, first compound 3.16 µM
[24] = second compound 0.316 µM, first compound 10 µM
[25] = second compound 1 µM, first compound 0.0316 µM
[26] = second compound 1 µM, first compound 0.1 µM
[27] = second compound 1 µM, first compound 0.316 µM
[28] = second compound 1 µM, first compound 1 µM
[29] = second compound 1 µM, first compound 3.16 µM
[30] = second compound 1 µM, first compound 10 µM
[31] = second compound 0.01 µM, first compound 0.00949 µM
[32] = second compound 0.01 µM, first compound 0.03 µM
[33] = second compound 0.01 µM, first compound 0.0949 µM
[34] = second compound 0.01 µM, first compound 0.3 µM
[35] = second compound 0.0316 µM, first compound 0.00949 µM
[36] = second compound 0.0316 µM, first compound 0.03 µM
[37] = second compound 0.0316 µM, first compound 0.0949 µM
[38] = second compound 0.0316 µM, first compound 0.3 µM
[39] = second compound 0.1 µM, first compound 0.00949 µM
[40] = second compound 0.1 µM, first compound 0.03 µM
[41] = second compound 0.1 µM, first compound 0.0949 µM
[42] = second compound 0.1 µM, first compound 0.3 µM
[43] = second compound 0.316 µM, first compound 0.00949 µM
[44] = second compound 0.316 µM, first compound 0.03 µM
[45] = second compound 0.316 µM, first compound 0.0949 µM
[46] = second compound 0.316 µM, first compound 0.3 µM
[47] = second compound 1 µM, first compound 0.00949 µM
[48] = second compound 1 µM, first compound 0.03 µM
[49] = second compound 1 µM, first compound 0.0949 µM
[50] = second compound 1 µM, first compound 0.3 µM

## C=CC(=O)N1CCN(c2nc(=O)n(-c3c(C)ccnc3C(C)C)c3nc(-c4c(O)cccc4F)c(F)cc23)C(C)C1 (stereo not given) + CCN1CCN(Cc2ccc(Nc3ncc(F)c(-c4cc(F)c5nc(C)n(C(C)C)c5c4)n3)nc2)CC1
Second compound 0.01 µM
  IC50: > 10000 nM
Second compound 0.0316 µM
  IC50: > 10000 nM
Second compound 0.1 µM
  IC50: > 10000 nM
Second compound 0.316 µM
  IC50: > 10000 nM
Second compound 1 µM
  IC50: 6470 nM
[1]
  viability, T/C: 97.6%
[2]
  viability, T/C: 95.6%
[3]
  viability, T/C: 112%
[4]
  viability, T/C: 98.4%
[5]
  viability, T/C: 91.4%
[6]
  viability, T/C: 58.8%
[7]
  viability, T/C: 98.5%
[8]
  viability, T/C: 94.7%
[9]
  viability, T/C: 102%
[10]
  viability, T/C: 110%
[11]
  viability, T/C: 76.9%
[12]
  viability, T/C: 48.3%
[13]
  viability, T/C: 117%
[14]
  viability, T/C: 107%
[15]
  viability, T/C: 118%
[16]
  viability, T/C: 101%
[17]
  viability, T/C: 84.4%
[18]
  viability, T/C: 59.4%
[19]
  viability, T/C: 106%
[20]
  viability, T/C: 106%
[21]
  viability, T/C: 111%
[22]
  viability, T/C: 94.8%
[23]
  viability, T/C: 70.7%
[24]
  viability, T/C: 50.9%
[25]
  viability, T/C: 100%
[26]
  viability, T/C: 101%
[27]
  viability, T/C: 96.4%
[28]
  viability, T/C: 78.9%
[29]
  viability, T/C: 62%
[30]
  viability, T/C: 43.1%

## CC(=O)c1c(C)c2cnc(Nc3ccc(N4CCNCC4)cn3)nc2n(C2CCCC2)c1=O + CCN1CCN(Cc2ccc(Nc3ncc(F)c(-c4cc(F)c5nc(C)n(C(C)C)c5c4)n3)nc2)CC1
Second compound 0.01 µM
  IC50: > 300 nM
Second compound 0.0316 µM
  IC50: > 300 nM
Second compound 0.1 µM
  IC50: > 300 nM
Second compound 0.316 µM
  IC50: > 300 nM
Second compound 1 µM
  IC50: > 300 nM
Second compound 0.01 µM, first compound 0.000949 µM
  viability, T/C: 93.2%
Second compound 0.01 µM, first compound 0.003 µM
  viability, T/C: 99.5%
[31]
  viability, T/C: 103%
[32]
  viability, T/C: 104%
[33]
  viability, T/C: 97.4%
[34]
  viability, T/C: 93.6%
Second compound 0.0316 µM, first compound 0.000949 µM
  viability, T/C: 101%
Second compound 0.0316 µM, first compound 0.003 µM
  viability, T/C: 95.4%
[35]
  viability, T/C: 90.6%
[36]
  viability, T/C: 93.3%
[37]
  viability, T/C: 93%
[38]
  viability, T/C: 94.1%
Second compound 0.1 µM, first compound 0.000949 µM
  viability, T/C: 93.9%
Second compound 0.1 µM, first compound 0.003 µM
  viability, T/C: 104%
[39]
  viability, T/C: 88.3%
[40]
  viability, T/C: 99.3%
[41]
  viability, T/C: 92.8%
[42]
  viability, T/C: 86.7%
Second compound 0.316 µM, first compound 0.000949 µM
  viability, T/C: 95%
Second compound 0.316 µM, first compound 0.003 µM
  viability, T/C: 90.9%
[43]
  viability, T/C: 96.6%
[44]
  viability, T/C: 92.1%
[45]
  viability, T/C: 97%
[46]
  viability, T/C: 85.5%
Second compound 1 µM, first compound 0.000949 µM
  viability, T/C: 82.7%
Second compound 1 µM, first compound 0.003 µM
  viability, T/C: 94.5%
[47]
  viability, T/C: 79.8%
[48]
  viability, T/C: 79.8%
[49]
  viability, T/C: 87.1%
[50]
  viability, T/C: 92.2%

## CC(C)(C)c1cnc(CSc2cnc(NC(=O)C3CCNCC3)s2)o1 + CCN1CCN(Cc2ccc(Nc3ncc(F)c(-c4cc(F)c5nc(C)n(C(C)C)c5c4)n3)nc2)CC1
Second compound 0.01 µM
  IC50: 74.4 nM
Second compound 0.0316 µM
  IC50: 67 nM
Second compound 0.1 µM
  IC50: 64.7 nM
Second compound 0.316 µM
  IC50: 51.8 nM
Second compound 1 µM
  IC50: 17.2 nM
[31]
  viability, T/C: 112%
[32]
  viability, T/C: 93%
[33]
  viability, T/C: 38.9%
[34]
  viability, T/C: 23.7%
Second compound 0.01 µM, first compound 0.949 µM
  viability, T/C: 27.4%
Second compound 0.01 µM, first compound 3 µM
  viability, T/C: 29.8%
[35]
  viability, T/C: 102%
[36]
  viability, T/C: 97.8%
[37]
  viability, T/C: 29.4%
[38]
  viability, T/C: 19.5%
Second compound 0.0316 µM, first compound 0.949 µM
  viability, T/C: 26.8%
Second compound 0.0316 µM, first compound 3 µM
  viability, T/C: 27.6%
[39]
  viability, T/C: 108%
[40]
  viability, T/C: 99.7%
[41]
  viability, T/C: 25%
[42]
  viability, T/C: 21.7%
Second compound 0.1 µM, first compound 0.949 µM
  viability, T/C: 26.9%
Second compound 0.1 µM, first compound 3 µM
  viability, T/C: 27.2%
[43]
  viability, T/C: 94.5%
[44]
  viability, T/C: 72.3%
[45]
  viability, T/C: 21.3%
[46]
  viability, T/C: 22.3%
Second compound 0.316 µM, first compound 0.949 µM
  viability, T/C: 27.1%
Second compound 0.316 µM, first compound 3 µM
  viability, T/C: 30.4%
[47]
  viability, T/C: 63%
[48]
  viability, T/C: 37.8%
[49]
  viability, T/C: 19.6%
[50]
  viability, T/C: 22.8%
Second compound 1 µM, first compound 0.949 µM
  viability, T/C: 27.5%
Second compound 1 µM, first compound 3 µM
  viability, T/C: 32%

## Cn1nccc1Nc1nccc(-c2ccn(C(CO)c3ccc(Cl)c(F)c3)c(=O)c2)n1 (stereo not given) + CCN1CCN(Cc2ccc(Nc3ncc(F)c(-c4cc(F)c5nc(C)n(C(C)C)c5c4)n3)nc2)CC1
Second compound 0.01 µM
  IC50: > 10000 nM
Second compound 0.0316 µM
  IC50: > 10000 nM
Second compound 0.1 µM
  IC50: > 10000 nM
Second compound 0.316 µM
  IC50: > 10000 nM
Second compound 1 µM
  IC50: > 10000 nM
[1]
  viability, T/C: 107%
[2]
  viability, T/C: 113%
[3]
  viability, T/C: 115%
[4]
  viability, T/C: 126%
[5]
  viability, T/C: 143%
[6]
  viability, T/C: 104%
[7]
  viability, T/C: 105%
[8]
  viability, T/C: 116%
[9]
  viability, T/C: 128%
[10]
  viability, T/C: 136%
[11]
  viability, T/C: 138%
[12]
  viability, T/C: 62.1%
[13]
  viability, T/C: 116%
[14]
  viability, T/C: 129%
[15]
  viability, T/C: 139%
[16]
  viability, T/C: 136%
[17]
  viability, T/C: 139%
[18]
  viability, T/C: 74.8%
[19]
  viability, T/C: 119%
[20]
  viability, T/C: 115%
[21]
  viability, T/C: 131%
[22]
  viability, T/C: 143%
[23]
  viability, T/C: 133%
[24]
  viability, T/C: 95%
[25]
  viability, T/C: 126%
[26]
  viability, T/C: 125%
[27]
  viability, T/C: 123%
[28]
  viability, T/C: 148%
[29]
  viability, T/C: 145%
[30]
  viability, T/C: 113%

Reference: PubChem BioAssay AID2060329 (Molecular Pharmacology Branch, DTP, NCI, 2025)
